Laboratory results published in US8802705B2, “Pharmaceutical containing PPAR delta agonist” (Senju Pharmaceutical Co., Ltd., priority 2007, dated 2014).

Key:
[1] = tested on: Normal human corneal epithelial cells; assay: Effect on increase of cell number of normal human corneal epithelial cells (Experimental Example 1, Cell Counting Kit-8); format: cell-based; conditions: for cell number increase rate: 24 hr stimulation, relative to non-addition group = 100%, mean ± SD, N = 3-4
Method: Normal human corneal epithelial cells (KURABO) were used.
As a test substance, [3-[2-[4-isopropyl-2-(4-trifluoromethyl)phenyl-5-thiazolyl]ethyl]-5-methyl-1,2-benzisoxazol-6-yl]oxyacetic acid (hereinafter to be referred to as compound A) was used. Compound A was dissolved in ethanol (Wako Pure Chemical Industries, Ltd.) to a concentration 200-fold of the final concentration in a culture medium, and the solution was stored at −80° C. until immediately before use.
As a cell culture medium for consideration of the cell number-increasing effect by compound A, a culture medium (basal medium) obtained by adding insulin, hydrocortisone and transferrin contained in HCGS growth additive set (KURABO) to EpiLife (KURABO) was used.
Normal human corneal epithelial cells cryopreserved in liquid nitrogen were thawed and the cell number was counted. The total amount thereof was transferred to EpiLife added with all of the HCGS growth additive set (insulin, epidermal growth factor mEGF derived from mouse, hydrocortisone, transferrin, bovine brain hypophysis extract) (4 mL, complete medium), and suspended well therein. The cell suspension was seeded on a fibronectin-coated 24 well plate (Becton Dickinson) at a cell number of 2×10^4 cells/500 μL/well (1×10^4 cells/cm^2 since bottom area was 2 cm^2).
After completion of cell seeding, the culture plate was incubated in an incubator set to 37° C., 5% CO2, 95% air and 100% humidity for 24 hr, and the culture medium was changed to 400 μL of the basal medium (EpiLife added with insulin, hydrocortisone and transferrin from HCGS growth additives).
After 24 hr thereafter, the culture medium was changed to the following culture medium (each 400 μL). • [1] basal medium alone (non-addition group) • [2] basal medium+mEGF (final concentration: 1 ng/mL; positive control group) • [3] basal medium+compound A (final concentration: 0.1 nM, 1 nM, 0.01 μM, 0.1 μM; compound A addition group)
Ethanol (5 μL) was added to 1 mL each of culture media and [2] to uniformly set the ethanol concentration of all culture media to 0.5%.
After 24 hr from the start of the stimulation with compound A, the culture supernatant was removed from each well, and a basal medium added with 10% Cell Counting Kit-8 (DOJINDO) was dispensed to each well by 200 μL. After dispensing, the culture plate was transferred to an incubator set to 37° C., 5% CO2, 95% air and 100% humidity and incubated for 2 hr. The supernatant (100 μL) was transferred to a 96 well culture plate for tissue culture (Corning), and the absorbance of each well at 450 nm was measured with a microplate reader (Dainippon Sumitomo Pharma Co., Ltd.), and used as an index of cell number increase.
The values of the positive control group and the compound A addition group were calculated based on the average absorbance of the non-addition group as 100%, and the non-addition group was compared with the compound A addition group and positive control group according to the Dunnett multiple comparison test (one-tailed). A critical value of less than 5% as a result of the test was judged as significant.

[2] = tested on: monkey meibomian gland epithelial cells; assay: Effect on cell number increase in meibomian gland epithelial cells (Experimental Example 3, Cell Counting Kit-8); format: cell-based; conditions: medium renewed every 48 hr (3 x 48 hr), relative to non-addition group = 100%, mean ± SD, N = 5 or 10
Excerpt: An eyelid of monkey isolated and stored in D-PBS was transferred to a clean bench, and cell preparation was aseptically performed as follows.
The isolated eyelid was immersed in 80% ethanol for 30 sec, washed three times with D-PBS added with 1% penicillin-streptomycin (Invitrogen), and transferred to a minimum essential medium (MEM; Invitrogen). The adipose tissue and muscular tissue surrounding the meibomian glandular tissue of the eyelid were removed under a stereomicroscope. They were transferred to MEM containing 0.3 U/mL collagenase A (Roche Diagnostics) and 2.4 U/mL dispase II (Roche Diagnostics), and shaken at 37° C. for 4 hr and at 4° C. overnight. The enzyme-treated tissue was set under a stereomicroscope, and the eyelash and eyelid connective tissue were removed to isolate the meibomian glandular tissue. Trypsin-EDTA (4 mL, Invitrogen) was added to the isolated glandular tissue, and the mixture was incubated at 37° C. for 10 min. After incubation, MEM (5 mL) containing 10% FBS (Invitrogen) was added thereto to stop the enzyme reaction, and the tissue constituting cells were dispersed by repeated suction and discharge of the mixture 5 times using an injection syringe equipped with a 21 G injection needle. The cell dispersion was passed through 100 μm and 40 μm nylon filters (Cell Strainer; Falcon), and cell mass and the like contained therein which could not be treated with the enzyme were removed. The cell suspension passed through the filters was collected in a centrifuge tube (50 mL) and centrifuged at room temperature, 1,500 rpm for 5 min. To the cell layers containing the object cells obtained by the centrifugation was added 80 μL of D-PBS containing 0.5% bovine serum albumin (BSA; Sigma-Aldrich), and the cells were sufficiently suspended therein. Anti-Fibroblast Microbeads (Militenyi Biotec, 20 μL) was added thereto, and the mixture was left standing at room temperature for 30 min. After completion of the reaction with an antibody, 2 mL of D-PBS containing 0.5% BSA was added thereto, and the mixture was centrifuged again at room temperature, 1,500 rpm for 5 min. To the cell layers containing the object cells obtained by the centrifugation was added 1 mL of D-PBS containing 0.5% BSA, and the cells were sufficiently suspended therein. The suspension was added dropwise to LD column (Militenyi Biotec) equilibrated in advance with a column washing solution (D-PBS containing 2 mM EDTA (DOJINDO LABORATORIES) and 0.5% BSA). Then, 2 mL of the column washing solution was added dropwise to the LD column. […] The cells collected in the centrifuge tube were centrifuged at room temperature, 1,500 rpm for 5 min, and the supernatant was removed. The sediment was suspended in Defined Keratinocyte Serum Free Medium (5 mL), centrifuged at room temperature, 1,500 rpm for 5 min, and removed the supernatant. Again, the residue was suspended in DK-SFM (3 mL), centrifuged at room temperature and 1,500 rpm for 5 min, and the supernatant was removed. The cells were suspended in DK-SFM (2 mL), and seeded on a 6 well multi-well plate for cell culture, which had been treated with collagen. The seeded cells were cultured in Defined keratinocyte-Serum Free Medium (DK-SFM; Invitrogen, attached Supplement was added as instructed in the preparation protocol), cultured in an incubator (SANYO) set to 37° C., 5% CO2, 95% air, 100% humidity, and the culture medium was exchanged with a new one every 48 hr until the cells became subconfluent.
As a test substance, compound A, [4-[3-[2-(4-trifluoromethyl)phenyl-4-isopropyl-5-thiazolyl]propionyl]-2-methylphenoxy]acetic acid (hereinafter to be referred to as compound B) or [4-[3-[2-(2-hydroxy-4-chlorophenyl)-5-isopropyl-4-oxazolyl]propionyl]-2-methylphenoxy]acetic acid (hereinafter to be referred to as compound C) was used. […]

Cc1cc2c(CCc3sc(-c4ccc(C(F)(F)F)cc4)nc3C(C)C)noc2cc1OCC(=O)O [compound A, [3-[2-[4-isopropyl-2-(4-trifluoromethyl)phenyl-5-thiazolyl]ethyl]-5-methyl-1,2-benzisoxazol-6-yl]oxyacetic acid]
effect on cell number of normal human corneal epithelial cells (in words) ([1]; 0.1 nM-0.1 μM, conclusion of the test): increases the cell number of normal human corneal epithelial cells | cell number increase rate ([1]; 10^−7 M): 172.6 ± 16.0% | cell number increase rate ([1]; 10^−8 M): 187.4 ± 10.2% | cell number increase rate ([1]; 10^−9 M): 169.0 ± 8.2% | cell number increase rate ([1]; 10^−10 M): 177.4 ± 20.8% | cell number increase ratio ([2]; 10^−6 M): 189.8 ± 13.1% | cell number increase ratio ([2]; 10^−7 M): 177.1 ± 9.7% | cell number increase ratio ([2]; 10^−8 M): 175.3 ± 9.0%
